Results on three compounds are retold here after patent publication US6352727B1, “Bactericides” (Oji Paper Co., Ltd., priority 1998, dated 2002).

A value given as a limit tells only on which side of the number the result lay.

Holding throughout (format): cell-based
For experiment [1], the system named is Salmonella enteritidis. Kind of experiment: Test of bactericidal power of bactericides after treating beef (block). As to conditions: 5 min. As to the method:
(§1) 100 ml of each of bactericides shown in Table 25 was charged into a vessel. 21 g of beef (block) was immersed in the bactericide, and allowed to stand at room temperature. After 24 hours, the beef was removed, and general bacterium (bacterium liberated from the beef) present in the bactericide were removed using a sterilized filter. 30 μl of bacteria suspension of Staphylococcus aureus or Salmonella enteritidis was added to 2 ml of the bactericide after used for the treatment of the beef. After five minutes, the number of bacterium in the bactericide was counted. As for 0.01% sodium hypochlorite, a similar test was conducted, and the results were compared.

The test system of experiment [2] is Staphylococcus aureus. The description is as above. As to conditions: 5 min. As to the method: as §1
Experiment [3] relates to general bacterium on the surface of beef. The experiment is described as follows: Number of bacterium on the surface of beef treated with bactericide. Conditions: 5 minutes immersion, preserved at 4° C. As to the method: 50 ml of each of bactericides was charged in a vessel, and then 15 g of beef (block) was immersed in the bactericide, and allowed to stand at room temperature (surface sterilization). After 5 minutes, the bactericide was removed, and only the beef was preserved in the vessel at 4° C. After certain period ((1) after one day, (2) after three days, (3) after six days), 25 ml of physiological saline was added to the vessel containing the beef, and shaked. The number of the bacterium cells liberated from the beef into the physiological saline was counted. It was confirmed according to preliminary experiments that the number of the bacterium cells per one gram of the beef existing on the surface of the beef before sterilization treatment was 10 or less. Sterilized water and sodium hypochlorite were also examined.

The test system of experiment [4] is Staphylococcus aureus IF012732. Kind of experiment: Test of bactericidal power of bactericides mixed with meat (beef) extract. As to the method: (§2) It was evaluated whether bactericidal power was lowered when the bactericides shown in Table 20 were mixed with beef extract (Wako Junyaku) according to the following method. For comparison, sodium hypochlorite was also evaluated. Strains used herein were Staphylococcus aureus IF012732 and Salmonella enteritidis IF003313.
(§3) One ml of each of bactericides shown in Table 20 and one ml of 5% beef extract (dissolved in sterilized water) were mixed at a ratio of one to one, and allowed to stand at a room temperature. After 10 minutes, 10 μl of bacteria suspension previously prepared was added to each of the bactericides and the mixture, and allowed to stand after stirred. Change of number of bacteria in the mixture solution was determined (one minute, five minutes and 10 minutes after addition of bacteria). According to previous experiments, it was confirmed that general viable count was 10 or less per one ml of 5% beef extract. As shown in Table 21 and Table 22, when 0.02% of sodium hypochlorite was mixed with a beef extract, bactericidal power thereof was lowered.
The bactericides shown in Table 23 were examined for bactericidal power in a similar manner to that of Test Example 7.

The test system of experiment [5] is Salmonella enteritidis IF003313. The experiment is described as above. As to the method: as §2, §3
Experiment [6] deals with Trichophyton mentagrphytes. Kind of experiment: Test of activity against Trichophyton mentagrphytes (paper disk, block circle). As to conditions: 8 mm paper disk with 25 μl, dried 24 hours; cultured at 28° C. for five days. As to the method:
A paper disk having a diameter of 8 mm that was previously subjected to dry heat sterilization, was impregnated with 25 μl of each of fungicides shown in Table 8 and allowed to stand for 24 hours to be dried. The paper disk was put on agar medium on which spore suspension of Trichophyton […] previously prepared was spread, and cultured at 28° C. for five days. […] No block circle was formed when a fungicide containing only chitosan (Comparative Example 4) was used.

The subject of another experiment is Bacillus subtilis. The experiment is described as follows: Test of persistency of bactericidal power on stainless steel. As to the method: (§4) Each of bactericide shown in Table 8 was sprayed on a sterilized stainless steel plate (15 μl/cm^2), and allowed to stand for seven days in a sterilized room to be dried. Each of the bacteria suspension previously cultured in a similar manner to that described above was diluted with physiological saline. Then, 10 μl of the diluted suspension was spread on the stainless steel. After allowed to stand for 10 minutes, bacterium on the stainless steel were wiped with absorbent cotton, and liberated into physiological saline. Then, visible count was counted. For comparison, 70% ethanol was used as a conventional bactericide. Strong bactericidal power of each bactericide of examples containing both eucalyptus extract and chitosan was maintained, even after elapse of seven days, on the stainless steel on which it was spread. The bactericidal power was stronger than that of bactericides containing only eucalyptus extract (Comparative Examples 1 to 3) or a bactericide containing only chitosan (Comparative Example 4).
(§5) Persistency of bactericidal power of the bactericides shown in Table 16 was evaluated in a similar manner to that of Test Example 3 (allowed to stand for one month). After elapse of one month from spraying of the bactericide, bactericidal power of the bactericide containing glycerol fatty acid ester in addition to eucalyptus extract and chitosan (Example 4) was stronger than that of bactericides containing no glycerol fatty acid ester (Comparative Example 5).

A further experiment deals with Escherichia coli. Described as above. As to the method:
as §4, §5

The test system of another experiment is MRSA. The description is as above. As to the method:
as §4, §5

Experiment [7] has as its system Salmonella enteritidis. The description is as above. As to the method: as §4, §5
For experiment [8], the system named is Staphylococcus aureus. Described as above. As to the method:
as §4, §5

[9] abbreviates: treatment of beef done (24 hours).
[10] abbreviates: mixing treatment of beef extract and bactericide (10 min) done, 1 min.
Where [11] appears, read: mixing treatment of beef extract and bactericide (10 min) done, 5 min.
The mark [12] stands for this setting: mixing treatment of beef extract and bactericide (10 min) done, 10 min.
[13] abbreviates: mixing treatment with beef extract none, 1 min.
Setting [14] is: mixing treatment with beef extract none, 5 min.
Where [15] appears, read: mixing treatment with beef extract none, 10 min.

`OCl` [0.01% Sodium hypochlorite, sodium hypochlorite]: the Viable count was 1.5 × 10^5 Number/ml in the experiment on Salmonella enteritidis [1] (setting [9]), under 1000 Number/ml in the experiment on Salmonella enteritidis [1] (treatment of beef none), 1.8 × 10^5 Number/ml in the experiment on Staphylococcus aureus [2] (setting [9]) and under 1000 Number/ml in the experiment on Staphylococcus aureus [2] (treatment of beef none). Also, the “Number of general bacterium” value in [3] (After 3 days) is recorded as 1.4 × 10^5 Number/g; in experiment [3] (After 6 days), 3.4 × 10^7 Number/g; in experiment [3] (After one day) it was 6.7 × 10^2 Number/g.
In the case of `[Na+].[O-]Cl` [0.02% Sodium hypochloryte, sodium hypochlorite], the Viable count in experiment [4] (setting [10]) is 6.5 × 10^6 Number/ml; in [4] (setting [11]), 6.5 × 10^6 Number/ml; in experiment [4] (setting [12]) it was 6.4 × 10^6 Number/ml; in experiment [4] (setting [13]) it was under 200 Number/ml; in [4] (setting [14]) it was under 200 Number/ml; in experiment [4] (setting [15]), under 200 Number/ml. Further, the Viable count in [5] (setting [10]) was 4.5 × 10^5 Number/ml; in experiment [5] (setting [11]) it was 4.3 × 10^5 Number/ml; in experiment [5] (setting [12]), 4.3 × 10^5 Number/ml; in experiment [5] (setting [13]) it was under 200 Number/ml; in experiment [5] (setting [14]) it was under 200 Number/ml; in experiment [5] (setting [15]) it was under 200 Number/ml.
Consider `CCO` [70% Ethanol, Ethanol], for which the “Diameter of block circle” value in [6] was “None”. Moreover, the “Viable count (After 7 days)” value is 3.0 × 10^6 Number/100 cm^2 in the experiment with Bacillus subtilis; 2.2 × 10^6 Number/100 cm^2 with Escherichia coli; 1.2 × 10^6 Number/100 cm^2 with MRSA; 4.5 × 10^6 Number/100 cm^2 in the experiment with Salmonella enteritidis [7]; 3.5 × 10^6 Number/100 cm^2 with Staphylococcus aureus [8].
